# System: purified human Hsp90
# Test: Binding Assay: fluorescence polarization with BODIPY-labeled geldanamycin
# Conditions: 5 μM compound, BODIPY-GM 10 nM, Hsp90 30 nM
# How it was run: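 Fluorescence polarization competition with BODIPY-geldanamycin (10 nM final) and human Hsp90 (30 nM final) in HEPES-KOH pH 7.3 buffer with molybdate, NP-40, DTT; 2% DMSO, overnight at room temperature. Read 485/530 nm; percent inhibition from mP normalized to DMSO controls, fluorescent-compound points excluded.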
row,Structure (SMILES),% Inhibition at 5 μM Compound Concentration [%]
1,"CC(C)(C)n1nnnc1N1CCC(CCn2cnc(N)c3nc(Sc4cc5c(cc4Br)OCO5)nc2-3)CC1 [Example 615, 8-[(6-Bromo-1,3-benzodioxol-5-yl)thio]-3-{2-[1-(1-tert-butyl-1 H-tetrazol-5-yl)piperidin-4-yl]ethyl}-3 H-purin-6-amine]",13.00
2,"N=C(N)N1CCC(CCn2cnc(N)c3nc(Sc4cc5c(cc4Br)OCO5)nc2-3)CC1 [Example 617, 4-(2-{6-Amino-8-[(6-bromo-1,3-benzodioxol-5-yl)thio]-3 H-purin-3-yl}ethyl)piperidine-1-carboximidamide]",83.00
3,"CCCNC(=N)N1CCC(CCn2cnc(N)c3nc(Sc4cc5c(cc4Br)OCO5)nc2-3)CC1 [Example 619, 4-(2-{6-Amino-8-[(6-bromo-1,3-benzodioxol-5-yl)thio]-3 H-purin-3-yl}ethyl)-N-propylpiperidine-1-carboximidamide]",76.00
4,"CCC(CC)N1CCN(CCn2cnc(N)c3nc(Sc4cc(OC)ccc4OC)nc2-3)CC1 [Example 628, 8-[(2,5-Dimethoxyphenyl)thio]-3-{2-[4-(1-ethylpropyl)piperazin-1-yl]ethyl}-3 H-purin-6-amine]",23.00
5,"COc1ccc(OC)c(Sc2nc3c(N)ncn(CCN4CCOCC4)c-3n2)c1 [Example 636, 8-[(2,5-Dimethoxyphenyl)thio]-3-(2-morpholin-4-ylethyl)-3 H-purin-6-amine]",25.00

# Now from value to compound:
row,% Inhibition at 5 μM Compound Concentration [%],Structure (SMILES)
1,19.00,"CC(C)(C)OC(=O)N1CCC(Cn2cnc(N)c3nc(Sc4cc5c(cc4Br)OCO5)nc2-3)CC1 [Example 640, tert-Butyl 4-({6-amino-8-[(6-bromo-1,3-benzodioxol-5-yl)thio]-3 H-purin-3-yl}methyl)piperidine-1-carboxylate]"
2,15.00,"CC(C)(C)OC(=O)N1CCCC(Cn2cnc(N)c3nc(Sc4cc5c(cc4Br)OCO5)nc2-3)C1 (stereo not shown) [Example 642, tert-Butyl 3-({6-amino-8-[(6-bromo-1,3-benzodioxol-5-yl)thio]-3 H-purin-3-yl}methyl)piperidine-1-carboxylate]"

# Same assay, conditions: BODIPY-GM 10 nM, Hsp90 30 nM
row,Structure (SMILES),IC50 [µM]
1,"CC(=O)N1CCC(CCn2cnc(N)c3nc(Sc4cc5c(cc4C#N)OCO5)nc2-3)CC1 [Example 621, 6-({3-[2-(1-Acetylpiperidin-4-yl)ethyl]-6-amino-3 H-purin-8-yl}thio)-1,3-benzodioxole-5-carbonitrile]",> 5
2,"COc1cc(C#N)c(Sc2nc3c(N)ncnc3n2CCC2CCN(C(C)=O)CC2)cc1OC [Example 622, 2-({9-[2-(1-Acetylpiperidin-4-yl)ethyl]-6-amino-9 H-purin-8-yl}thio)-4,5-dimethoxybenzonitrile]",> 5
3,"COc1cc(C#N)c(Sc2nc3c(N)ncn(CCC4CCN(C(C)=O)CC4)c-3n2)cc1OC [Example 623, 2-({3-[2-(1-Acetylpiperidin-4-yl)ethyl]-6-amino-3 H-purin-8-yl}thio)-4,5-dimethoxybenzonitrile]",> 4
4,"COc1ccc(OC)c(Sc2nc3c(N)ncn(CCN4CCN(C(C)=O)CC4)c-3n2)c1 [Example 630, 3-[2-(4-Acetylpiperazin-1-yl)ethyl]-8-[(2,5-dimethoxyphenyl)thio]-3 H-purin-6-amine]",9
5,"COc1ccc(OC)c(Sc2nc3c(N)ncnc3n2CCN2CCN(C)CC2)c1 [Example 631, 8-[(2,5-Dimethoxyphenyl)thio]-9-[2-(4-methylpiperazin-1-yl)ethyl]-9 H-purin-6-amine]",2
6,"COc1ccc(OC)c(Sc2nc3c(N)ncnc3n2CCN2CCNC(=O)C2)c1 [Example 634, 4-(2-{6-Amino-8-[(2,5-dimethoxyphenyl)thio]-9 H-purin-9-yl}ethyl)piperazin-2-one]",8.1
7,"CCOP(=O)(OCC)N1CCCCC1CCn1c(Sc2cc3c(cc2Br)OCO3)nc2c(N)ncnc21 (stereo not shown) [Example 643, Diethyl [2-(2-{6-amino-8-[(6-bromo-1,3-benzodioxol-5-yl)thio]-9 H-purin-9-yl}ethyl)piperidin-1-yl]phosphonate]",5
8,"CCOP(=O)(OCC)N1CCC(CCn2c(Sc3cc4c(cc3Br)OCO4)nc3c(N)ncnc32)CC1 [Example 644, Diethyl [4-(2-{6-amino-8-[(6-bromo-1,3-benzodioxol-5-yl)thio]-9 H-purin-9-yl}ethyl)piperidin-1-yl]phosphonate]",0.2
9,"CC(=O)N1CCC(CCn2c(Sc3nc4ccc([N+](=O)[O-])cc4s3)nc3c(N)ncnc32)CC1 [Example 651, 9-[2-(1-Acetylpiperidin-4-yl)ethyl]-8-[(6-nitro-1,3-benzothiazol-2-yl)thio]-9H-purin-6-amine]",> 5

# Results, then the compound that gave them:
row,IC50 [µM],Structure (SMILES)
1,1.8,"CC(C)(C)n1nnnc1N1CCC(CCn2c(Sc3cc4c(cc3Br)OCO4)nc3c(N)ncnc32)CC1 [Example 614, 8-[(6-Bromo-1,3-benzodioxol-5-yl)thio]-9-{2-[1-(1-tert-butyl-1 H-tetrazol-5-yl)piperidin-4-yl]ethyl}-9 H-purin-6-amine]"
2,0.09,"N=C(N)N1CCC(CCn2c(Sc3cc4c(cc3Br)OCO4)nc3c(N)ncnc32)CC1 [Example 616, 4-(2-{6-Amino-8-[(6-bromo-1,3-benzodioxol-5-yl)thio]-9 H-purin-9-yl}ethyl)piperidine-1-carboximidamide]"
3,0.041,"CCCNC(=N)N1CCC(CCn2c(Sc3cc4c(cc3Br)OCO4)nc3c(N)ncnc32)CC1 [Example 618, 4-(2-{6-Amino-8-[(6-bromo-1,3-benzodioxol-5-yl)thio]-9 H-purin-9-yl}ethyl)-N-propylpiperidine-1-carboximidamide]"
4,0.17,"CC(=O)N1CCC(CCn2c(Sc3cc4c(cc3C#N)OCO4)nc3c(N)ncnc32)CC1 [Example 620, 6-({9-[2-(1-Acetylpiperidin-4-yl)ethyl]-6-amino-9 H-purin-8-yl}thio)-1,3-benzodioxole-5-carbonitrile]"
5,0.58,"COCc1cc2c(cc1Sc1nc3c(N)ncnc3n1CCC1CCN(C=O)CC1)OCO2 [Example 624, 4-[2-(6-Amino-8-{[6-(methoxymethyl)-1,3-benzodioxol-5-yl]thio}-9 H-purin-9-yl)ethyl]piperidine-1-carbaldehyde]"
6,0.11,"C#CCN1CCC(CCn2c(Sc3cc4c(cc3Br)OCO4)nc3c(N)ncnc32)CC1 [Example 625, 8-[(6-Bromo-1,3-benzodioxol-5-yl)thio]-9-[2-(1-prop-2-yn-1-ylpiperidin-4-yl)ethyl]-9 H-purin-6-amine]"
7,> 8,"CCC(CC)N1CCN(CCn2c(Sc3cc(OC)ccc3OC)nc3c(N)ncnc32)CC1 [Example 627, 8-[(2,5-Dimethoxyphenyl)thio]-9-{2-[4-(1-ethylpropyl)piperazin-1-yl]ethyl}-9 H-purin-6-amine]"
8,> 25,"COc1ccc(OC)c(Sc2nc3c(N)ncnc3n2CCN2CCN(C(C)=O)CC2)c1 [Example 629, 9-[2-(4-Acetylpiperazin-1-yl)ethyl]-8-[(2,5-dimethoxyphenyl)thio]-9 H-purin-6-amine]"
9,> 3,"Nc1ncnc2c1nc(Sc1cc3c(cc1Br)OCO3)n2CCN1CCN(C2CCCC2)CC1 [Example 632, 8-[(6-Bromo-1,3-benzodioxol-5-yl)thio]-9-[2-(4-cyclopentylpiperazin-1-yl)ethyl]-9 H-purin-6-amine]"
10,1.5,"CC(C)(C)C(=O)N1CCN(CCn2c(Sc3cc4c(cc3Br)OCO4)nc3c(N)ncnc32)CC1 [Example 633, 8-[(6-Bromo-1,3-benzodioxol-5-yl)thio]-9-{2-[4-(2,2-dimethylpropanoyl)piperazin-1-yl]ethyl}-9 H-purin-6-amine]"
11,> 25,"CC(C)(C)OC(=O)N1CCCC(CCCn2c(Sc3cc4c(cc3Br)OCO4)nc3c(N)ncnc32)C1 (stereo not shown) [Example 637, tert-Butyl 3-(3-{6-amino-8-[(6-bromo-1,3-benzodioxol-5-yl)thio]-9 H-purin-9-yl}propyl)piperidine-1-carboxylate]"
12,> 25,"CC(C)(C)OC(=O)N1CCCCC1CCCn1c(Sc2cc3c(cc2Br)OCO3)nc2c(N)ncnc21 (stereo not shown) [Example 638, tert-Butyl 2-(3-{6-amino-8-[(6-bromo-1,3-benzodioxol-5-yl)thio]-9 H-purin-9-yl}propyl)piperidine-1-carboxylate]"
13,0.9,"CC(C)(C)OC(=O)N1CCC(Cn2c(Sc3cc4c(cc3Br)OCO4)nc3c(N)ncnc32)CC1 [Example 639, tert-Butyl 4-({6-amino-8-[(6-bromo-1,3-benzodioxol-5-yl)thio]-9 H-purin-9-yl}methyl)piperidine-1-carboxylate]"
14,1.1,"CC(C)(C)OC(=O)N1CCCC(Cn2c(Sc3cc4c(cc3Br)OCO4)nc3c(N)ncnc32)C1 (stereo not shown) [Example 641, tert-Butyl 3-({6-amino-8-[(6-bromo-1,3-benzodioxol-5-yl)thio]-9 H-purin-9-yl}methyl)piperidine-1-carboxylate]"
15,0.45,"CC(C)(C)OC(=O)CN1CCCCC1CCn1c(Sc2cc3c(cc2Br)OCO3)nc2c(N)ncnc21 (stereo not shown) [Example 645, tert-Butyl [2-(2-{6-amino-8-[(6-bromo-1,3-benzodioxol-5-yl)thio]-9 H-purin-9-yl}ethyl)piperidin-1-yl]acetate]"
16,0.06,"Nc1ncnc2c1nc(Sc1cc3c(cc1Br)OCO3)n2CCCC1CCCCN1 (stereo not shown) [Example 646, 8-[(6-bromo-1,3-benzodioxol-5-yl)thio]-9-(3-piperidin-2-ylpropyl)-9H-purin-6-amine]"
17,0.684,"Nc1ncnc2c1nc(Sc1cc3c(cc1Br)OCO3)n2CC1CCNCC1 [Example 648, 8-[(6-bromo-1,3-benzodioxol-5-yl)thio]-9-(piperidin-4-ylmethyl)-9H-purin-6-amine]"
18,> 2,"Nc1ncnc2c1nc(Sc1cc3c(cc1Br)OCO3)n2CCC1CCCCN1CC(=O)O (stereo not shown) [Example 650, [2-(2-{6-amino-8-[(6-bromo-1,3-benzodioxol-5-yl)thio]-9H-purin-9-yl}ethyl)piperidin-1-yl]acetic acid]"

# Source: patent US7595401B2, “Therapeutic compounds and their use in cancer” (Myriad Pharmaceuticals, Inc., priority 2006, dated 2009)
